# Measurements reported in patent publication US20020068838A1, “AROMATIC AMIDES, THEIR PREPARATION PROCESS AND THEIR USE AS PESTICIDES” (priority 1997, published 2002).
# Experiments:
# Assay type in all cases: in vivo
# [1] = tested on: Spodoptera littoralis; assay: Study on Spodoptera littoralis (haricot leaf dip test); details: starting from a dose of 300 ppm, after seven days, 25 C
# Protocol: The product was dissolved at the desired concentration in an acetone-water mixture (50-50). Haricot leaves (Phaseolus vulgaris, var. […]) were immersed for five seconds in the solution, then left to dry in a Petri dish for one hour. Ten larvae of Spodoptera littoralis were then added to each dish. These were kept at a temperature of 25 C., with a photoperiod of twelve hours. After seven days, the mortality of the larvae was checked and the foliar surface consumed was evaluated.
# [2] = tested on: Heliothis virescens; assay: Study on Heliothis virescens (artificial medium surface treatment); details: starting from a dose of 300 ppm; neonate larva; after seven days; 25 C
# Protocol: The product was dissolved at the desired concentration in an acetone-water mixture (50-50). 50 μl of solution were deposited on the surface of a small well containing approximately 2 grams of plant-based artificial medium. One neonate larva of Heliothis virescens was then introduced into each well, which was sealed with a sheet of cellophane. The tests were kept at a temperature of 25 C., with a photoperiod of twelve hours. The mortality of the larvae was checked after seven days.
# [3] = tested on: Phaedon cochleariae; assay: Study on Phaedon cochleariae (foliar disk dip test, Chinese cabbage); details: starting from a dose of 300 ppm; adults; after seven days; 25 C
# Protocol: The product was dissolved at the desired concentration in an acetone-water mixture (50-50). Foliar disks of Chinese cabbage (Brassica pekinensis) were immersed for five seconds in the solution, then left to dry for one hour. Ten adults (a mixture of males and females) were added into a Petri dish containing a foliar disk each. These were kept at a temperature of 25 C., with a photoperiod of twelve hours. After seven days, the mortality of the insects was checked and the foliar surface consumed was evaluated.
# [4] = tested on: Leptinotarsa decemlineata; assay: Study on Leptinotarsa decemlineata (aubergine foliar disk dip test); details: starting from a dose of 300 ppm; larvae (3rd stage); after four days; 25 C
# Protocol: The product was dissolved at the desired concentration in an acetone-water mixture (50-50). Foliar disks of aubergine were immersed in the solution, then left to dry for one hour. Ten larvae (3rd stage) were added into a Petri dish each containing a foliar disk. These were kept at a temperature of 25 C. After four days, the mortality of the insects was checked.
smiles,measurement,setting,value
Cc1ccccc1NC(=O)c1ccc(CC(F)=Cc2ccc(Cl)c(Cl)c2)cc1 [Example 2],activity (mortality of the larvae and foliar surface consumed),[1],good activity
same,activity (mortality of the larvae),[2],good activity
"Cc1ccccc1NC(=O)c1ccc(CC(F)Cc2ccc(Cl)c(Cl)c2)cc1 (stereo not drawn) [Example 1, 4-[3-(3,4-dichlorophenyl)-2-fluoropropyl]-N-(2-methylphenyl)-benzamide]",activity (mortality of the larvae and foliar surface consumed),[1],good activity
same,activity (mortality of the larvae),[2],good activity
"Cc1ccccc1NC(=O)c1ccc(CC=Cc2ccc(Cl)c(Cl)c2)cc1 [Example 7, 4-[3-(3,4-dichlorophenyl)-2-propenyl]-N-(2-methylphenyl)-benzamide]",activity (mortality of the larvae and foliar surface consumed),[1],good activity
same,activity (mortality of the larvae),[2],good activity
"Cc1ccccc1NC(=O)c1ccc(CC=C(Cl)c2ccc(Cl)c(Cl)c2)cc1 [Example 6, 4-[3-chloro-3-(3,4-dichlorophenyl)-2-propenyl]-N-(2-methylphenyl)-benzamide]",activity (mortality of the larvae and foliar surface consumed),[1],good activity
same,activity (mortality of the insects and foliar surface consumed),[3],good activity
same,activity (mortality of the larvae),[2],good activity
same,activity (mortality of the insects),[4],very interesting activity
"CC(=CCc1ccc(C(=O)Nc2ccccc2C)cc1)c1ccc(Cl)c(Cl)c1 [Example 5, 4-[3-(3,4-dichlorophenyl)-2-butenyl]-N-(2-methylphenyl)-benzamide]",activity (mortality of the larvae and foliar surface consumed),[1],good activity
same,activity (mortality of the larvae),[2],good activity
